Experimental data taken from publication PMC5598135 (Toxicology Reports, 2014).

Target: mTOR kinase (Homo sapiens, UniProt P42345)
Experiment: cell-free ELISA kinase assay
Assay type: biochemical

IC50: 6 nM
Structure (SMILES): O=C1NC(c2cccc3ncccc23)Nc2ccccc21 (stereo not shown) [DQQ, 2,3-dihydro-2-(quinoline-5-yl) quinazolin-4(1H)-one]
